From patent US6761919B2, “Ambient stable beverage” (priority 2000, dated 2004)

What was measured:
Assay type in all cases: cell-based
[1] = system: yeast Saccharomyces cerevisiae X2180-1B; test: Growth of yeast in matrix of tubes of Ready to Drink tea (0.14% tea) with preservatives and essential oil component, OD 600 nm at 14 days; settings: RTD tea pH 3.4, cinnamic acid 1-175 ppm, 14 days 25° C.; for tubes supporting yeast growth compared with control without essential oil (FIG. 1): sorbic acid 1-250 ppm; for tubes supporting yeast growth compared with control without essential oil (FIG. 13): benzoic acid 1-250 ppm; for tubes supporting yeast growth compared with control without essential oil (FIG. 19): sorbic acid+benzoic acid 1:1 1-250 ppm
Protocol: (§1) The matrix of 30 ml tubes each contained 10 ml RTD tea, pH 3.4. […] Tubes were inoculated with 10^4 cells of the yeast Saccharomyces cerevisiae X2180-1B. Tubes were then incubated for 14 days at 25° C. to allow surviving yeasts to grow out. At 14 days growth was measured by optical density at 600 nm in x11 diluted samples, and blank values subtracted.
as §1, with “containing” for “contained”, “tea” for “tea,”, “3.4, all contained 100 ppm citral dimethyl acetal.” for “3.4.”, “were” for “were then”
as §1, with “containing” for “contained”, “tea” for “tea,”, “3.4, all contained 100 ppm cumic alcohol.” for “3.4.”, “were” for “were then”
as §1, with “containing” for “contained”, “tea” for “tea,”, “3.4, all contained 100 ppm citral.” for “3.4.”, “were” for “were then”
as §1, with “containing” for “contained”, “tea” for “tea,”, “3.4, all contained 50 ppm 3,7-dimethyl octanol.” for “3.4.”, “were” for “were then”
as §1, with “containing” for “contained”, “tea” for “tea,”, “3.4, all contained 100 ppm myrtenol.” for “3.4.”, “were” for “were then”
as §1, with “containing” for “contained”, “tea” for “tea,”, “3.4, all contained 100 ppm piperonyl acetate.” for “3.4.”, “were” for “were then”
as §1, with “containing” for “contained”, “tea” for “tea,”, “3.4, all contained 15 ppm trans, trans-2,4-decadienal.” for “3.4.”, “were” for “were then”
as §1, with “containing” for “contained”, “tea” for “tea,”, “3.4, all contained 100 ppm δ-decanolactone.” for “3.4.”, “were” for “were then”
as §1, with “containing” for “contained”, “tea” for “tea,”, “3.4, all contained 25 ppm citral dimethyl acetal and 35 ppm cumic alcohol.” for “3.4.”, “were” for “were then”
The matrix of 30 ml tubes each contained 10 ml RTD tea, pH 3.4. […]

fungi = settings: Table I, preferred essential oils
[2] = system: spoilage mould Aspergillus niger POL10; test: Growth of spoilage mould in RTD tea with preservatives and increasing citral dimethyl acetal, visual at 28 days; settings: RTD tea pH 3.1, 0.14% tea; sorbic acid 200 ppm, cinnamic acid 60 ppm, EDTA 30 ppm; 10^4 conidiaspores; 28 days 25° C.; tested 1-400 ppm
Protocol: Growth of spoilage mould Aspergillus niger POL10 in 30 ml tubes each contained 10 ml RTD tea, pH 3.1, 0.14% tea. All tubes containing sorbic acid 200 ppm, cinnamic acid 60 ppm, EDTA 30 ppm. An essential oil component, citral dimethyl acetal, was added in increasing concentration to tubes, in the range 1-400 ppm. Tubes were inoculated with 10^4 conidiaspores of the mould Aspergillus niger POL10. Tubes were then incubated for 28 days at 25° C. to allow moulds to grow out. At 28 days growth was measured visually. Mould growth was visible in all tubes, excepting those containing >80 ppm citral dimethyl acetal.

[3] = system: yeast Saccharomyces cerevisiae X2180-1B; test: Growth of yeast in matrix of tubes of synthetic soft drink (0% tea) with preservatives and essential oil component, OD 600 nm at 14 days; settings: synthetic soft drink pH 3.4, 100 ppm essential oil component, cinnamic acid 1-175 ppm, 14 days 25° C.
Protocol: (§2) Synthetic soft drink contained glucose, 8%w/v, citric acid 3 g/l, potassium orthophosphate 1 g/l, magnesium chloride 0.1 g/l and yeast extract 0.1 g/l. The matrix of 30 ml tubes each contained 10 ml synthetic soft drink, pH 3.4. Sorbic acid was used in the range 1-250 ppm and cinnamic acid in the range 1-175 ppm. Tubes were inoculated with 10^4 cells of the yeast Saccharomyces cerevisiae X2180-1B. Tubes were then incubated for 14 days at 25° C. to allow surviving yeasts to grow out. At 14 days growth was measured by optical density at 600 nm in x11 diluted samples, and blank values subtracted.
as §2, with “each containing” for “each contained”, “soft drink” for “soft drink,”, “pH 3.4, all contained 100 ppm citral dimethyl acetal.” for “pH 3.4.”, “were” for “were then”
Synthetic soft drink contained glucose, 8%w/v, citric acid 3 g/l, potassium orthophosphate 1 g/l, magnesium chloride 0.1 g/l and yeast extract 0.1 g/l. The matrix of 30 ml tubes each contained 10 ml synthetic soft drink, pH 3.4. […] At 14 days growth was measured by optical density at 600 nm in x11 diluted samples, and blank values subtracted.
Synthetic soft drink contained glucose, 8%w/v, citric acid 3 g/l, potassium orthophosphate 1 g/l, magnesium chloride 0.1 g/l and yeast extract 0.1 g/l. […] At 14 days growth was measured by optical density at 600 nm in x11 diluted samples, and blank values subtracted.
Synthetic soft drink contained glucose, 8%w/v, citric acid 3 g/l, potassium orthophosphate 1 g/l, magnesium chloride 0.1 g/l and yeast extract 0.1 g/l. […] At 14 days growth was measured by optical density at 600 nm in x11 diluted samples, and blank values subtracted. […]

[4] = 100 ppm essential oil component

CCCCC/C=C/C=C/C=O [trans,trans-2,4-Decadienal]
tubes supporting yeast growth compared with control without essential oil (FIG. 1) ([1]; 15 ppm essential oil component): very substantially fewer tubes supporting yeast growth

CC1(C)C2CC=C(CO)C1C2 (stereo not shown) [Myrtenol]
tubes supporting yeast growth compared with control without essential oil (FIG. 1) [1, 4]: very substantially fewer tubes supporting yeast growth

CC(C)=CCCC(C)=CC=O [Citral]
tubes supporting yeast growth compared with control without essential oil (FIG. 1) [1, 4]: very substantially fewer tubes supporting yeast growth

CCCCCCCC(=O)O [Octanoic acid (caprylic)]
MIC (ppm) (fungi): 115 ppm

CC(=O)OCc1ccc2c(c1)OCO2 [Piperonyl acetate]
tubes supporting yeast growth compared with control without essential oil (FIG. 1) [1, 4]: very substantially fewer tubes supporting yeast growth

CC(C)c1ccc(CO)cc1 [Cumic alcohol]
tubes supporting yeast growth compared with control without essential oil (FIG. 1) [1, 4]: very substantially fewer tubes supporting yeast growth

CC(C)CCCC(C)CCO (stereo not shown) [3,7-Dimethyl-1-octanol]
tubes supporting yeast growth compared with control without essential oil (FIG. 13) ([1]; 50 ppm essential oil component): very substantially fewer tubes supporting yeast growth | tubes supporting yeast growth compared with control without essential oil (FIG. 1) ([1]; 50 ppm essential oil component): very substantially fewer tubes supporting yeast growth | tubes supporting yeast growth compared with control without essential oil (FIG. 19) ([1]; 50 ppm essential oil component): very substantially fewer tubes supporting yeast growth

COC(C=C(C)CCC=C(C)C)OC [Citral dimethyl acetal]
tubes supporting yeast growth compared with control without essential oil (FIG. 13) [1, 4]: very substantially fewer tubes supporting yeast growth | tubes supporting yeast growth compared with control without essential oil (FIG. 1) [1, 4]: very substantially fewer tubes supporting yeast growth | tubes supporting yeast growth compared with control without essential oil (FIG. 19) [1, 4]: very substantially fewer tubes supporting yeast growth | concentration at which no mould growth was visible [2]: > 80 ppm | tubes supporting yeast growth compared with control without essential oil (FIG. 17) ([3]; benzoic acid 1-250 ppm): very substantially fewer tubes supporting yeast growth | tubes supporting yeast growth compared with control without essential oil (FIG. 11) ([3]; sorbic acid 1-250 ppm): very substantially fewer tubes supporting yeast growth | tubes supporting yeast growth compared with control without essential oil (FIG. 23) ([3]; sorbic acid+benzoic acid 1:1 1-250 ppm): very substantially fewer tubes supporting yeast growth
